Reference: ChEMBL document CHEMBL5724696, “Autophagy assay results for EUbOPEN Chemogenomics Library” (2024)

Legend:
Type in all cases: functional, Homo sapiens
TERT-RPE1 = assay: (§1) Here: values are normalized to the negative (DMSO; defined as 0% autophagy induction) and positive (250nM Torin1; mTOR inhibitor; defined as maximal inducer of autophagy = 100%) control compounds and represented as % of autophagy induction. […] The impact of autophagy induction on cells is complex and depends on the affected target. As such, the magnitude of a phenotype may not be equally mirrored in the %-value of autophagy induction and vice versa. The dynamics of the induction may indicate the mode of activation: e.g. activation via phosphorylation or a signaling cascade may occur fast, while activation via transcription factors may take considerably longer. […] Of note, treatment concentrations may be sub-optimal for specific compounds, leading to false negative annotations.; settings: Culturing Media DMEM/F12 (1:1), 1 % Penicillin/Streptomycin, 10% Fetal bovin serum Add-On: No, Screening Media Control DMEM/F12 (1:1), Screening Media Samples DMEM/F12 (1:1)
U2OS [1] = assay: as §1; settings: Culturing Media DMEM, 1 % Penicillin/Streptomycin, 10% Fetal bovin serum Add-On: No, Screening Media Control DMEM, Screening Media Samples DMEM
U2OS [2] = assay: as §1; settings: Culturing Media DMEM, 1 % Penicillin/Streptomycin, 10% Fetal bovin serum Add-On: No, Screening Media Control DMEM, Screening Media Samples DMEM; remark: listed apart in the source
[3] = Compound Concentration 0.5 uM, Timepoint 12 hours
[4] = Compound Concentration 0.5 uM, Timepoint 24 hours
[5] = Compound Concentration 0.5 uM, Timepoint 36 hours
[6] = Compound Concentration 0.5 uM, Timepoint 60 hours
[7] = Compound Concentration 2 uM, Timepoint 12 hours
[8] = Compound Concentration 2 uM, Timepoint 24 hours
[9] = Compound Concentration 2 uM, Timepoint 36 hours
[10] = Compound Concentration 2 uM, Timepoint 60 hours
[11] = Compound Concentration 10 uM, Timepoint 12 hours
[12] = Compound Concentration 10 uM, Timepoint 24 hours
[13] = Compound Concentration 10 uM, Timepoint 36 hours
[14] = Compound Concentration 10 uM, Timepoint 60 hours

Compound: Cc1nc(C(=O)N2CCC[C@H]2Cc2nnc(-c3ccccc3)o2)c(-c2ccccc2F)s1
- autophagy induction (TERT-RPE1; [3]): -3.536%
- autophagy induction (TERT-RPE1; [4]): -6.3015%
- autophagy induction (TERT-RPE1; [5]): -4.185%
- autophagy induction (TERT-RPE1; [6]): -7.252%
- autophagy induction (TERT-RPE1; [7]): -4.803%
- autophagy induction (TERT-RPE1; [8]): -6.585%
- autophagy induction (TERT-RPE1; [9]): -5.999%
- autophagy induction (TERT-RPE1; [10]): -9.333%
- autophagy induction (TERT-RPE1; [11]): 0.2716%
- autophagy induction (TERT-RPE1; [12]): 0.5174%
- autophagy induction (TERT-RPE1; [13]): 2.2318%
- autophagy induction (TERT-RPE1; [14]): 3.905%
- autophagy induction (U2OS [1]; [3]): 4.15%
- autophagy induction (U2OS [1]; [4]): -0.2081%
- autophagy induction (U2OS [1]; [5]): -2.227%
- autophagy induction (U2OS [1]; [6]): -2.102%
- autophagy induction (U2OS [1]; [7]): 0.7749%
- autophagy induction (U2OS [1]; [8]): -1.115%
- autophagy induction (U2OS [1]; [9]): -1.752%
- autophagy induction (U2OS [1]; [10]): -2.832%
- autophagy induction (U2OS [1]; [11]): 4.1851%
- autophagy induction (U2OS [1]; [12]): 1.702%
- autophagy induction (U2OS [1]; [13]): -1.044%
- autophagy induction (U2OS [1]; [14]): -3.102%
- autophagy induction (U2OS [2]; [3]): 13.4134%
- autophagy induction (U2OS [2]; [4]): 8.147%
- autophagy induction (U2OS [2]; [5]): 0.9843%
- autophagy induction (U2OS [2]; [6]): 3.676%
- autophagy induction (U2OS [2]; [7]): 5.837%
- autophagy induction (U2OS [2]; [8]): 5.052%
- autophagy induction (U2OS [2]; [9]): 3.424%
- autophagy induction (U2OS [2]; [10]): -6.267%
- autophagy induction (U2OS [2]; [11]): 0.7146%
- autophagy induction (U2OS [2]; [12]): 3.711%
- autophagy induction (U2OS [2]; [13]): -0.07108%
- autophagy induction (U2OS [2]; [14]): -6.907%

Compound: N#Cc1c(N)nc(SCC(N)=O)c(C#N)c1-c1ccc(OCC2CC2)cc1
- autophagy induction (TERT-RPE1; [3]): -0.3512%
- autophagy induction (TERT-RPE1; [4]): -0.4647%
- autophagy induction (TERT-RPE1; [5]): -3.4426%
- autophagy induction (TERT-RPE1; [6]): -13.7976%
- autophagy induction (TERT-RPE1; [7]): 6.426%
- autophagy induction (TERT-RPE1; [8]): 7.278%
- autophagy induction (TERT-RPE1; [9]): 5.568%
- autophagy induction (TERT-RPE1; [10]): -4.471%
- autophagy induction (TERT-RPE1; [11]): 18.2835%
- autophagy induction (TERT-RPE1; [12]): 21.4433%
- autophagy induction (TERT-RPE1; [13]): 22.9122%
- autophagy induction (TERT-RPE1; [14]): 26.9726%
- autophagy induction (U2OS [1]; [3]): 1.815%
- autophagy induction (U2OS [1]; [4]): -1.199%
- autophagy induction (U2OS [1]; [5]): -2.125%
- autophagy induction (U2OS [1]; [6]): -2.448%
- autophagy induction (U2OS [1]; [7]): 4.971%
- autophagy induction (U2OS [1]; [8]): 0.9116%
- autophagy induction (U2OS [1]; [9]): -0.4866%
- autophagy induction (U2OS [1]; [10]): -0.2456%
- autophagy induction (U2OS [1]; [11]): 12.9304%
- autophagy induction (U2OS [1]; [12]): 7.609%
- autophagy induction (U2OS [1]; [13]): 1.394%
- autophagy induction (U2OS [1]; [14]): 0.5911%
- autophagy induction (U2OS [2]; [3]): 13.384%
- autophagy induction (U2OS [2]; [4]): 10.3272%
- autophagy induction (U2OS [2]; [5]): 7.6764%
- autophagy induction (U2OS [2]; [6]): 5.5559%
- autophagy induction (U2OS [2]; [7]): 6.979%
- autophagy induction (U2OS [2]; [8]): 4.233%
- autophagy induction (U2OS [2]; [9]): 4.058%
- autophagy induction (U2OS [2]; [10]): 1.654%
- autophagy induction (U2OS [2]; [11]): 28.6221%
- autophagy induction (U2OS [2]; [12]): 28.519%
- autophagy induction (U2OS [2]; [13]): 26.7564%
- autophagy induction (U2OS [2]; [14]): 32.3548%

Compound: COc1cccc(-c2c(C)n(Cc3c(F)cccc3C(F)(F)F)c(=O)n(C[C@H](NCCCC(=O)[O-])c3ccccc3)c2=O)c1F.[Na+] [ELAGOLIX SODIUM]
- autophagy induction (U2OS [1]; [3]): -3.352%
- autophagy induction (U2OS [1]; [4]): -3.1643%
- autophagy induction (U2OS [1]; [5]): -0.7483%
- autophagy induction (U2OS [1]; [6]): -1111.24%
- autophagy induction (U2OS [1]; [7]): -6.63%
- autophagy induction (U2OS [1]; [8]): -5.163%
- autophagy induction (U2OS [1]; [9]): -4.643%
- autophagy induction (U2OS [1]; [10]): 114.391%
- autophagy induction (U2OS [1]; [11]): -2.89%
- autophagy induction (U2OS [1]; [12]): -3.023%
- autophagy induction (U2OS [1]; [13]): -0.9947%
- autophagy induction (U2OS [1]; [14]): 114.218%
- autophagy induction (U2OS [2]; [3]): 4.133%
- autophagy induction (U2OS [2]; [4]): 4.438%
- autophagy induction (U2OS [2]; [5]): 6.469%
- autophagy induction (U2OS [2]; [6]): -7.02%
- autophagy induction (U2OS [2]; [7]): 12.3647%
- autophagy induction (U2OS [2]; [8]): 8.125%
- autophagy induction (U2OS [2]; [9]): 1.282%
- autophagy induction (U2OS [2]; [10]): -8.542%
- autophagy induction (U2OS [2]; [11]): -6.525%
- autophagy induction (U2OS [2]; [12]): -4.485%
- autophagy induction (U2OS [2]; [13]): -1.897%
- autophagy induction (U2OS [2]; [14]): -2.895%

Compound: CC(C)(N)C(=O)N[C@H](COCc1ccccc1)C(=O)N1CCC2(CC1)CN(S(C)(=O)=O)c1ccccc12.CS(=O)(=O)O [IBUTAMOREN MESYLATE]
- autophagy induction (U2OS [1]; [3]): 0.1513%
- autophagy induction (U2OS [1]; [4]): -2.852%
- autophagy induction (U2OS [1]; [5]): -1.869%
- autophagy induction (U2OS [1]; [6]): 114.207%
- autophagy induction (U2OS [1]; [7]): 2.232%
- autophagy induction (U2OS [1]; [8]): 1.174%
- autophagy induction (U2OS [1]; [9]): -0.1276%
- autophagy induction (U2OS [1]; [10]): 113.997%
- autophagy induction (U2OS [1]; [11]): 21.0515%
- autophagy induction (U2OS [1]; [12]): 11.8835%
- autophagy induction (U2OS [1]; [13]): 9.457%
- autophagy induction (U2OS [1]; [14]): 114.001%
- autophagy induction (U2OS [2]; [3]): -8.194%
- autophagy induction (U2OS [2]; [4]): -5.824%
- autophagy induction (U2OS [2]; [5]): -3.752%
- autophagy induction (U2OS [2]; [6]): 0.1138%
- autophagy induction (U2OS [2]; [7]): -4.688%
- autophagy induction (U2OS [2]; [8]): -1.11%
- autophagy induction (U2OS [2]; [9]): 1.85%
- autophagy induction (U2OS [2]; [10]): -0.8182%
- autophagy induction (U2OS [2]; [11]): 7.887%
- autophagy induction (U2OS [2]; [12]): 2.743%
- autophagy induction (U2OS [2]; [13]): 7.197%
- autophagy induction (U2OS [2]; [14]): 14.096%

Compound: O=C1O[C@]2(CC[C@H](C(=O)Nc3ccn(-c4ccccc4F)n3)CC2)c2cnccc21 [MK-0557]
- autophagy induction (U2OS [1]; [3]): 3.984%
- autophagy induction (U2OS [1]; [4]): 1.732%
- autophagy induction (U2OS [1]; [5]): 0.4919%
- autophagy induction (U2OS [1]; [6]): 114.165%
- autophagy induction (U2OS [1]; [7]): 0.04111%
- autophagy induction (U2OS [1]; [8]): -0.7319%
- autophagy induction (U2OS [1]; [9]): -2.648%
- autophagy induction (U2OS [1]; [10]): 114.407%
- autophagy induction (U2OS [1]; [11]): 2.947%
- autophagy induction (U2OS [1]; [12]): -1.736%
- autophagy induction (U2OS [1]; [13]): -2.592%
- autophagy induction (U2OS [1]; [14]): 114.447%
- autophagy induction (U2OS [2]; [3]): 2.719%
- autophagy induction (U2OS [2]; [4]): -3.33%
- autophagy induction (U2OS [2]; [5]): -1.0176%
- autophagy induction (U2OS [2]; [6]): -10.434%
- autophagy induction (U2OS [2]; [7]): 13.2836%
- autophagy induction (U2OS [2]; [8]): 10.9196%
- autophagy induction (U2OS [2]; [9]): 6.623%
- autophagy induction (U2OS [2]; [10]): 2.549%
- autophagy induction (U2OS [2]; [11]): 4.4586%
- autophagy induction (U2OS [2]; [12]): 4.355%
- autophagy induction (U2OS [2]; [13]): 0.9374%
- autophagy induction (U2OS [2]; [14]): -12.6304%
